In ChEMBL document CHEMBL5338723, “Emerging Target-Directed Approaches for the Treatment and Diagnosis of Microbial Infections” (J Med Chem, 2023):
≈ marks a conversion by molar mass, not a printed value.

Key:
[1] = system: Acinetobacter baumannii; experiment: Antimicrobial activity against Acinetobacter baumannii ATCC 17961 assessed as microbial growth inhibition; assay type: functional
[2] = system: Acinetobacter baumannii; experiment: Antimicrobial activity against Acinetobacter baumannii ARC 3484 assessed as microbial growth inhibition; assay type: functional
[3] = system: Acinetobacter baumannii; experiment: Antimicrobial activity against Acinetobacter baumannii ARC 3486 assessed as microbial growth inhibition; assay type: functional
[4] = system: Acinetobacter baumannii; experiment: Antimicrobial activity against Acinetobacter baumannii ARC 5079 assessed as microbial growth inhibition; assay type: functional
[5] = system: Acinetobacter baumannii; experiment: Antimicrobial activity against Acinetobacter baumannii ARC 5081 assessed as microbial growth inhibition; assay type: functional
[6] = system: Acinetobacter baumannii; experiment: Antimicrobial activity against Acinetobacter baumannii ATCC 17978 assessed as microbial growth inhibition; assay type: functional
[7] = system: Acinetobacter baumannii; experiment: Antimicrobial activity against Acinetobacter baumannii ATCC 17978 pNT165 producing carbapenamase assessed as microbial growth inhibition; assay type: functional
[8] = system: Acinetobacter baumannii; experiment: Antimicrobial activity against Acinetobacter baumannii ATCC BAA 1710 assessed as microbial growth inhibition; assay type: functional
[9] = system: Acinetobacter baumannii; experiment: Antimicrobial activity against Acinetobacter baumannii ATCC 17978 pNT221 assessed as microbial growth inhibition; assay type: functional
[10] = system: Acinetobacter baumannii; experiment: Antimicrobial activity against Acinetobacter baumannii ATCC 17978 pNT255 assessed as microbial growth inhibition; assay type: functional
[11] = system: Acinetobacter baumannii; experiment: Antimicrobial activity against Acinetobacter baumannii ATCC 17978 pNT320 producing cephalosporinase assessed as microbial growth inhibition; assay type: functional
[12] = system: Acinetobacter baumannii; experiment: Antimicrobial activity against Acinetobacter baumannii ATCC BAA 1793 assessed as microbial growth inhibition; assay type: functional
[13] = system: Acinetobacter baumannii; experiment: Antimicrobial activity against Acinetobacter baumannii ATCC BAA 1797 assessed as microbial growth inhibition; assay type: functional
[14] = system: Acinetobacter baumannii; experiment: Antimicrobial activity against Acinetobacter baumannii ATCC BAA 1800 assessed as microbial growth inhibition; assay type: functional
[15] = system: Streptococcus pneumoniae; experiment: Antimicrobial activity against Streptococcus pneumoniae assessed as microbial growth inhibition; assay type: functional
[16] = system: Yersinia enterocolitica; experiment: Antimicrobial activity against Yersinia enterocolitica assessed as microbial growth inhibition; assay type: functional
[17] = Cytotoxicity against human L02 assessed as lethal dose; assay type: toxicity, cell-based; details: L02 cells, read-out: LD50 (the source's name)
[18] = system: Salmonella typhimurium; experiment: Antimicrobial activity against Salmonella enterica subsp. enterica serovar Typhimurium assessed as increase in microbial growth inhibition; assay type: functional
[19] = system: Salmonella enteritidis; experiment: Antimicrobial activity against Salmonella enterica subsp. enterica serovar Enteritidis assessed as increase in microbial growth inhibition; assay type: functional
[20] = system: Mycobacterium tuberculosis; experiment: Antimicrobial activity against Mycobacterium tuberculosis H37Rv assessed as microbial growth inhibition; assay type: functional
[21] = system: Enterococcus faecium; experiment: Antimicrobial activity against vancomycin-resistant Enterococcus faecium ATCC 51559 assessed as microbial growth inhibition; assay type: functional
[22] = system: Enterococcus faecalis; experiment: Antimicrobial activity against vancomycin-resistant Enterococcus faecalis ATCC 51575 assessed as microbial growth inhibition; assay type: functional
[23] = system: Staphylococcus aureus; experiment: Antimicrobial activity against vancomycin intermediate Staphylococcus aureus assessed as microbial growth inhibition; assay type: functional
[24] = system: Staphylococcus aureus; experiment: Antimicrobial activity against methicillin-resistant Staphylococcus aureus ATCC 33591 assessed as microbial growth inhibition; assay type: functional
[25] = system: Pseudomonas aeruginosa; experiment: Antibacterial activity against Wild type Pseudomonas aeruginosa KW799 assessed as microbial growth inhibition incubated for 20 hrs in iron depleted media by CLSI protocol based broth microdilution method; assay type: functional
[26] = system: Pseudomonas aeruginosa; experiment: Antibacterial activity against Pseudomonas aeruginosa KW799/61 assessed as microbial growth inhibition incubated for 20 hrs in iron depleted media by CLSI protocol based broth microdilution method; assay type: functional
[27] = system: Pseudomonas aeruginosa; experiment: Antibacterial activity against Pseudomonas aeruginosa PAO1 assessed as microbial growth inhibition incubated for 20 hrs in iron depleted media by CLSI protocol based broth microdilution method; assay type: functional
[28] = system: Pseudomonas aeruginosa; experiment: Antibacterial activity against Pseudomonas aeruginosa Pa4 assessed as microbial growth inhibition incubated for 20 hrs in iron depleted media by CLSI protocol based broth microdilution method; assay type: functional
[29] = system: Acinetobacter baumannii; experiment: Antimicrobial activity against Acinetobacter baumannii ATCC 17978 assessed as microbial growth inhibition under iron-deficient condition; assay type: functional

## CCCCCCCCCC(=O)N[C@@H](Cc1c[nH]c2ccccc12)C(=O)N[C@H](CC(N)=O)C(=O)N[C@@H](CC(=O)O)C(=O)N[C@@H]1C(=O)NCC(=O)N[C@@H](CCCNC(=O)CN(CCCCNC(=O)c2cccc(O)c2O)C(=O)c2cccc(O)c2O)C(=O)N[C@@H](CC(=O)O)C(=O)N[C@H](C)C(=O)N[C@@H](CC(=O)O)C(=O)NCC(=O)N[C@H](CO)C(=O)N[C@@H](C(C)CC(=O)O)C(=O)N[C@@H](CC(=O)c2ccccc2N)C(=O)O[C@@H]1C (stereo partly specified)
[1]
  MIC: 0.2 µM (≈ 0.404 µg/mL)
[2]
  MIC: 0.2 µM (≈ 0.404 µg/mL)
[3]
  MIC: 0.2 µM (≈ 0.404 µg/mL)
[4]
  MIC: 0.2 µM (≈ 0.404 µg/mL)
[5]
  MIC: 0.2 µM (≈ 0.404 µg/mL)
[6]
  MIC: 0.2 µM (≈ 0.404 µg/mL)
[7]
  MIC: 0.2 µM (≈ 0.404 µg/mL)
[8]
  MIC: 0.2 µM (≈ 0.404 µg/mL)
[9]
  MIC: 0.2 µM (≈ 0.404 µg/mL)
[10]
  MIC: 0.2 µM (≈ 0.404 µg/mL)
[11]
  MIC: 0.2 µM (≈ 0.404 µg/mL)
[12]
  MIC: 0.2 µM (≈ 0.404 µg/mL)
[13]
  MIC: 0.2 µM (≈ 0.404 µg/mL)
[14]
  MIC: 0.2 µM (≈ 0.404 µg/mL)

## CN(Cc1cnc2nc(N)nc(N)c2n1)c1ccc(C(=O)N[C@@H](CCC(=O)O)C(=O)O)cc1 [METHOTREXATE]
[15]
  MIC: ≥ 2.2 µM
[16]
  MIC: > 35.2 µM
[17]
  CC50: 8 nM

## CC1(C)S[C@@H]2[C@H](NC(=O)[C@H](NC(=O)CCCc3cn(CCOCCOCCOCCNC(=O)c4cc(O)c(O)c(C(=O)N[C@H]5COC(=O)[C@@H](NC(=O)c6cccc(O)c6O)COC(=O)[C@@H](NC(=O)c6cccc(O)c6O)COC5=O)c4)nn3)c3ccccc3)C(=O)N2[C@H]1C(=O)O
[18]
  MIC: 0.01 µM
[19]
  MIC: 0.01 µM

## C[C@@H](O)[C@H]1C(=O)N2C(C(=O)O)=C(S[C@H]3C[C@@H](C(=O)N(C)C)N(C(=O)CCCc4cn(CCOCCOCCOCCNC(=O)c5cc(O)c(O)c(C(=O)N[C@H]6COC(=O)[C@@H](NC(=O)c7cc([C@@H]8O[C@H](CO)[C@@H](O)[C@H](O)[C@H]8O)cc(O)c7O)COC(=O)[C@@H](NC(=O)c7cc([C@@H]8O[C@H](CO)[C@@H](O)[C@H](O)[C@H]8O)cc(O)c7O)COC6=O)c5)nn4)C3)[C@H](C)[C@H]12
[18]
  MIC: 0.01 µM
[19]
  MIC: 0.01 µM

## Oc1nc2ccccc2nc1O
[20]
  MIC: > 59.2 µM

## CN[C@H](CC(C)C)C(=O)N[C@H]1C(=O)N[C@@H](CC(N)=O)C(=O)N[C@H]2C(=O)N[C@H]3C(=O)N[C@H](C(=O)N[C@H](C(=O)NCCCNC(=O)[C@H](O)[C@@H](O)[C@H](O)[C@H](O)CO)c4cc(O)cc(O)c4-c4cc3ccc4O)[C@H](O)c3ccc(c(Cl)c3)Oc3cc2cc(c3O[C@@H]2O[C@H](CO)[C@@H](O)[C@H](O)[C@H]2O[C@H]2C[C@](C)(N)[C@H](O)[C@H](C)O2)Oc2ccc(cc2Cl)[C@H]1O
[21]
  MIC: 54 µM (≈ 90.9 µg/mL)
[22]
  MIC: 60 µM (≈ 101 µg/mL)
[23]
  MIC: 0.9 µM (≈ 1.52 µg/mL)
[24]
  MIC: 0.6 µM (≈ 1.01 µg/mL)

## CC(=O)Oc1cccc(C(=O)NCCCC(CCCNC(=O)c2cccc(OC(C)=O)c2OC(C)=O)(CCCNC(=O)c2cccc(OC(C)=O)c2OC(C)=O)NC(=O)CCC(=O)NC(C(=O)NC2C(=O)N3C2SC(C)(C)[C@@H]3C(=O)O)c2ccccc2)c1OC(C)=O (stereo partly specified)
[25]
  MIC: 0.05 µM (≈ 0.0647 µg/mL)
[26]
  MIC: 0.05 µM (≈ 0.0647 µg/mL)
[27]
  MIC: 0.05 µM (≈ 0.0647 µg/mL)
[28]
  MIC: 0.05 µM (≈ 0.0647 µg/mL)

## CC(=O)N(O)CCCCNC(=O)[C@H](COC(=O)c1cccc(O)c1O)NC(=O)[C@H]1N=C(c2cc(CCCCC(=O)N[C@@H](C(=O)N[C@@H]3C(=O)N4C(C(=O)O)=C(Cl)CS[C@H]34)c3ccccc3)cc(O)c2O)O[C@@H]1C
[29]
  MIC: 0.5 µg/mL (≈ 0.481 µM)

## C[C@H]1OC(c2cccc(O)c2O)=N[C@@H]1C(=O)N[C@@H](COC(=O)c1cc(N[C@@H](C(=O)N[C@@H]2C(=O)N3C(C(=O)O)=C(Cl)CS[C@H]23)c2ccccc2)cc(O)c1O)C(=O)NCCCCN(O)C=O
[29]
  MIC: 0.5 µg/mL (≈ 0.532 µM)

## CC(=O)Oc1cccc(C(=O)NCCCC(CCCNC(=O)c2cccc(OC(C)=O)c2OC(C)=O)(CCCNC(=O)c2cccc(OC(C)=O)c2OC(C)=O)NC(=O)CCC(=O)NC(C(=O)NC2C(=O)N3C2SC(C)(C)[C@@H]3C(=O)O)c2ccc(O)cc2)c1OC(C)=O (stereo partly specified)
[25]
  MIC: 0.05 µM (≈ 0.0655 µg/mL)
[26]
  MIC: 0.05 µM (≈ 0.0655 µg/mL)
[27]
  MIC: 0.05 µM (≈ 0.0655 µg/mL)
[28]
  MIC: 0.05 µM (≈ 0.0655 µg/mL)
